This note sets out measurements from patent publication US20250171462A1 (NICO Therapeutics, Inc., priority 2022, published 2025).

Broadly, the IC50 is the concentration that inhibits the measured activity by half.

Like-named read-outs stand apart in the source and are kept apart here. Where only a bound is given, the exact number is not on record here.

This assay deals with T1, full-length SARM1 (FL-SARM1) (Homo sapiens, UniProt Q6SZW1).
T1 sequence (Q6SZW1 28-724): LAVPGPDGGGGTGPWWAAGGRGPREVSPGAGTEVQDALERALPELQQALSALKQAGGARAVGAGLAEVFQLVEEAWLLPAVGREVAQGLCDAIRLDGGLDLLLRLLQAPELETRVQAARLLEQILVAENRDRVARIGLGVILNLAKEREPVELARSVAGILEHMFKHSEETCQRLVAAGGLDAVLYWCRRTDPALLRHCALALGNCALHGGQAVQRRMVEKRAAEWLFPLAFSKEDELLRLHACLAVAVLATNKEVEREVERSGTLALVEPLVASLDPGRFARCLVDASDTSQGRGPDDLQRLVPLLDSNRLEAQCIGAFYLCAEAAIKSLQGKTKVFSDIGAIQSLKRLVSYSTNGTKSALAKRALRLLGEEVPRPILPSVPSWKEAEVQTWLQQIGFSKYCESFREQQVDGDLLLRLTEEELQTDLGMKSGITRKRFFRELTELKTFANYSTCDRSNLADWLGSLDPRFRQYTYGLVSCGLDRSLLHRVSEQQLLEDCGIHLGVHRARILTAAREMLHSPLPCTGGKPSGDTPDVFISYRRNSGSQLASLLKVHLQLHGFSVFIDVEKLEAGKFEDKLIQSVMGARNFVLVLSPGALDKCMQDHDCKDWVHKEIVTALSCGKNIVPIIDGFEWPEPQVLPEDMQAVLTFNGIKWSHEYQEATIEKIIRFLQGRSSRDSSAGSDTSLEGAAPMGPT
The assay can be described thus: FL-SARM1 cellular lysate assay (NAD/NADH-Glo detection of remaining NAD+, NMN-activated).

The mark [1] stands for this setting: Activity (IC50 class), 11 point curve.
Setting [2] is: Activity (μM) (IC50), 11 point curve.
The mark [3] stands for this setting: read-out: Activity (IC50 class), 11 point curve.

As to `Cc1ccc(NC(=O)C(C)C(F)(F)F)cc1-c1ncccn1` (racemic) [Example 169, 3,3,3-trifluoro-2-methyl-N-(4-methyl-3-pyrimidin-2-ylphenyl)propanamide], the concentration for half-maximal inhibition (IC50) is, setting by setting: under setting [1], over 10 µM; under setting [2], 21 µM.
As to `Cc1cc(F)c(NC(=O)N2[C@@H]3C[C@@H](C)C[C@@]2(C(C)(C)O)C3)cc1-c1ncc(F)cn1` (racemic) [Example 183, cis-N-(2-fluoro-5-(5-fluoropyrimidin-2-yl)-4-methylphenyl)-1-(2-hydroxypropan-2-yl)-3-methyl-6-azabicyclo[3.1.1]heptane-6-carboxamide], the 50% inhibitory concentration (IC50) under setting [2] came out at 0.06 µM and the half-inhibitory concentration (IC50) under setting [3] lay in the range of 0.0001 to 1 µM.
Take `Cc1ccc(NC(=O)N2CCCC(C)CC2)cc1-c1ncc(F)cn1` (racemic) [Example 213, N-(3-(5-fluoropyrimidin-2-yl)-4-methylphenyl)-4-methylazepane-1-carboxamide]: the IC50 is 0.2 µM under setting [2] and 0.0001 to 1 µM under setting [3].
With `Cc1ccc(NC(=O)N(C)C(c2ncccn2)C2CCC2)cc1-c1ncc(F)cn1` (racemic) [Example 214, 1-(cyclobutyl(pyrimidin-2-yl)methyl)-3-(3-(5-fluoropyrimidin-2-yl)-4-methylphenyl)-1-methylurea], the half-inhibitory concentration (IC50) by setting is: under setting [1], 1 to 10 µM; under setting [2], 3.9 µM.
The compound `Cc1ccc(NC(=O)N2C[C@@H]3CCC[C@@H]32)cc1-c1ncc(F)cn1` (racemic) [Example 222, N-[3-(5-fluoropyrimidin-2-yl)-4-methylphenyl]-6-azabicyclo[3.2.0]heptane-6-carboxamide] came in with an IC50 under setting [1] of 1 to 10 µM and an IC50 under setting [2] of 3.4 µM.
For `Cc1ccc(NC(=O)N2CCOCCC2C)cc1-c1ncc(F)cn1` (racemic) [Example 225, N-[3-(5-fluoropyrimidin-2-yl)-4-methylphenyl]-5-methyl-1,4-oxazepane-4-carboxamide] the same measures were over 10 µM and 32 µM.
Turning to `Cc1ccc(NC(=O)N2C[C@@H]3CCCC[C@@H]32)cc1-c1ncc(F)cn1` (racemic) [Example 226, N-[3-(5-fluoropyrimidin-2-yl)-4-methylphenyl]-7-azabicyclo[4.2.0]octane-7-carboxamide], the IC50 is 1 to 10 µM under setting [1] and 1.5 µM under setting [2].
For `Cc1ccc(NC(=O)N2[C@@H]3C[C@@H](C)C[C@@]2(COC(F)F)C3)cc1-c1ncc(F)cn1` (racemic) [Example 227, cis-1-(difluoromethoxymethyl)-N-[3-(5-fluoropyrimidin-2-yl)-4-methylphenyl]-3-methyl-6-azabicyclo[3.1.1]heptane-6-carboxamide], the IC50 by setting is: under setting [2], 0.02 µM; under setting [3], 0.0001 to 1 µM.
Regarding `Cc1ccc(NC(=O)[C@H]2C[C@@H]2c2ccccc2)cc1-c1ncc(F)cn1` (racemic) [Example 257, trans-N-(3-(5-fluoropyrimidin-2-yl)-4-methylphenyl)-2-phenylcyclopropane-1-carboxamide], the IC50 by setting is: under setting [1], over 10 µM; under setting [2], 30 µM.
Consider `Cc1ccc(NC(=O)C2CCC[C@@H](C)N2c2ccccn2)cc1-c1ncc(F)cn1` (mixture of isomers) [Example 258, cis-N-(3-(5-fluoropyrimidin-2-yl)-4-methylphenyl)-6-methyl-1-(pyridin-2-yl)piperidine-2-carboxamide], for which the IC50 is 1 to 10 µM under setting [1] and 2.4 µM under setting [2].
Take `Cc1ccc(NC(=O)[C@@H]2CO[C@H](C(F)(F)F)CN2c2ccccn2)cc1-c1ncc(F)cn1` (racemic) [Example 272, cis-N-(3-(5-fluoropyrimidin-2-yl)-4-methylphenyl)-4-(pyridin-2-yl)-6-(trifluoromethyl) morpholine-3-carboxamide]: the IC50 is, setting by setting: under setting [1], 1 to 10 µM; under setting [2], 1.1 µM.
As for `Cc1ccc(NC(=O)[C@H]2CC[C@@H](C3CC3)N2c2ccccn2)cc1-c1ncc(F)cn1` (racemic) [Example 273, cis-5-cyclopropyl-N-(3-(5-fluoropyrimidin-2-yl)-4-methylphenyl)-1-(pyridin-2-yl)pyrrolidine-2-carboxamide], the half-maximal inhibitory concentration (IC50) runs as follows: under setting [1], 1 to 10 µM; under setting [2], 1.9 µM.
On to `Cc1ccc(NC(=O)[C@@H]2CC[C@@H](C3CC3)N2c2ccccn2)cc1-c1ncc(F)cn1` (racemic) [Example 274, trans-5-cyclopropyl-N-(3-(5-fluoropyrimidin-2-yl)-4-methylphenyl)-1-(pyridin-2-yl)pyrrolidine-2-carboxamide], for which the IC50 by setting is: under setting [1], 1 to 10 µM; under setting [2], 1.2 µM.
For `Cc1ccc(NC(=O)[C@@H]2C[C@H]3CC[C@@H]2N3c2ccccn2)cc1-c1ncc(F)cn1` (racemic) [Example 275, cis-N-(3-(5-fluoropyrimidin-2-yl)-4-methylphenyl)-7-(pyridin-2-yl)-7-azabicyclo[2.2.1]heptane-2-carboxamide] the same measures were 1 to 10 µM and 4.9 µM.
`Cc1ccc(NC(=O)C2CCC(=O)N2c2ccccn2)cc1-c1ncc(F)cn1` (racemic) [Example 278, N-[3-(5-fluoropyrimidin-2-yl)-4-methylphenyl]-5-oxo-1-pyridin-2-ylpyrrolidine-2-carboxamide]: the 50% inhibitory concentration (IC50) runs as follows: under setting [1], over 10 µM; under setting [2], 17 µM.
On the same counts, the results for `Cc1ccc(NC(=O)[C@@H]2CN(CC(F)(F)F)C[C@H]2c2ccccn2)cc1-c1ncc(F)cn1` (racemic) [Example 280, trans-N-[3-(5-fluoropyrimidin-2-yl)-4-methylphenyl]-4-pyridin-2-yl-1-(2,2,2-trifluoroethyl)pyrrolidine-3-carboxamide] are over 10 µM and 28 µM.
For `Cc1ccc(NC(=O)[C@H]2C[C@@H]2C2CC2)cc1-c1cccnn1` (racemic) [Example 283, trans-2-cyclopropyl-N-(4-methyl-3-pyridazin-3-ylphenyl)cyclopropane-1-carboxamide], the half-inhibitory concentration (IC50) by setting is: under setting [1], over 10 µM; under setting [2], 11 µM.
On the same counts, the results for `Cc1ccc(NC(=O)[C@@H]2C[C@@H]2C2CC2)cc1-c1cccnn1` (racemic) [Example 284, cis-2-cyclopropyl-N-(4-methyl-3-pyridazin-3-ylphenyl)cyclopropane-1-carboxamide] are 1 to 10 µM and 1.8 µM.
On the same counts, the results for `Cc1ccc(NC(=O)C2CCc3cccnc32)cc1-c1ncc(F)cn1` (racemic) [Example 290, N-[3-(5-fluoropyrimidin-2-yl)-4-methylphenyl]-6,7-dihydro-5H-cyclopenta[b]pyridine-7-carboxamide] are over 10 µM and 17 µM.
On the same counts, the results for `Cc1ccc(NC(=O)C2CC23CCC3)cc1-c1cccnn1` (racemic) [Example 293, N-(4-methyl-3-pyridazin-3-ylphenyl)spiro[2.3] hexane-2-carboxamide] are 1 to 10 µM and 2.4 µM.
In the case of `Cc1ccc(NC(=O)C(C)C2CCC2)cc1-c1cccnn1` (racemic) [Example 297, 2-cyclobutyl-N-(4-methyl-3-pyridazin-3-ylphenyl)propanamide], the IC50 under setting [1] was 1 to 10 µM and the IC50 under setting [2] was determined as 6.5 µM.
On to `Cc1ccc(NC(=O)C(Cc2ncccn2)C2CCC2)cc1-c1ncc(F)cn1` (racemic) [Example 302, 2-cyclobutyl-N-(3-(5-fluoropyrimidin-2-yl)-4-methylphenyl)-3-(pyrimidin-2-yl)propanamide], for which the half-inhibitory concentration (IC50) under setting [1] lay within 1 to 10 µM and 3 µM corresponded to half-maximal inhibition under setting [2] (IC50).
In the case of `COCC1COc2ccccc2CN1C(=O)Nc1ccc(C)c(-c2ncc(F)cn2)c1` (racemic) [Example 309, N-(3-(5-fluoropyrimidin-2-yl)-4-methylphenyl)-3-(methoxymethyl)-2,3-dihydrobenzo[f][1,4] oxazepine-4(5H)-carboxamide], the IC50 reads like this: under setting [1], 1 to 10 µM; under setting [2], 1.1 µM.
For `CC1CCCCCN1C(=O)Nc1ccc(C(F)(F)F)c(-c2ncc(F)cn2)c1` (racemic) [Example 312, N-(3-(5-fluoropyrimidin-2-yl)-4-(trifluoromethyl)phenyl)-2-methylazepane-1-carboxamide], the IC50 runs as follows: under setting [1], 1 to 10 µM; under setting [2], 1.4 µM.
On the same counts, the results for `Cc1ccc(NC(=O)C2CCC3(CC3)CN2c2ccccn2)cc1-c1ncc(F)cn1` (racemic) [Example 314] are 1 to 10 µM and 1.2 µM.
In the case of `Cc1ccc(NC(=O)[C@H]2CC[C@@H](C)CN2c2ncccn2)cc1-c1ncccn1` (racemic) [Example 327], the 50% inhibitory concentration (IC50) by setting is: under setting [2], 0.5 µM; under setting [3], 0.0001 to 1 µM.
Turning to `Cc1ccc(NC(=O)N2CC3CC(C)C2C3)cc1-c1ccccn1` (single isomer, unassigned) [Example 12, 6-methyl-N-(4-methyl-3-(pyridin-2-yl)phenyl)-2-azabicyclo[2.2.1]heptane-2-carboxamide], the concentration for half-maximal inhibition (IC50) reads like this: under setting [1], 1 to 10 µM; under setting [2], 2 µM.
Consider `Cc1ccc(NC(=O)N2C3C[C@@H]2CC[C@@H]3C)cc1-c1ccccn1` (single isomer, unassigned) [Example 47, cis-2-methyl-N-(4-methyl-3-(pyridin-2-yl)phenyl)-6-azabicyclo[3.1.1]heptane-6-carboxamide], for which the half-inhibitory concentration (IC50) runs as follows: under setting [2], 0.06 µM; under setting [3], 0.0001 to 1 µM.
